Data published in article PMC11311870, “Catalytic Mode and Product Specificity of an α-Agarase Reveal Its Direct Catalysis for the Production of Agarooligosaccharides” (Foods, 2024).

Target: T1, Cm-AGA (Catenovulum maritimum, UniProt A0A0J8H064)
T1 construct: gene XM47_01860
T1 sequence (A0A0J8H064 27-1466): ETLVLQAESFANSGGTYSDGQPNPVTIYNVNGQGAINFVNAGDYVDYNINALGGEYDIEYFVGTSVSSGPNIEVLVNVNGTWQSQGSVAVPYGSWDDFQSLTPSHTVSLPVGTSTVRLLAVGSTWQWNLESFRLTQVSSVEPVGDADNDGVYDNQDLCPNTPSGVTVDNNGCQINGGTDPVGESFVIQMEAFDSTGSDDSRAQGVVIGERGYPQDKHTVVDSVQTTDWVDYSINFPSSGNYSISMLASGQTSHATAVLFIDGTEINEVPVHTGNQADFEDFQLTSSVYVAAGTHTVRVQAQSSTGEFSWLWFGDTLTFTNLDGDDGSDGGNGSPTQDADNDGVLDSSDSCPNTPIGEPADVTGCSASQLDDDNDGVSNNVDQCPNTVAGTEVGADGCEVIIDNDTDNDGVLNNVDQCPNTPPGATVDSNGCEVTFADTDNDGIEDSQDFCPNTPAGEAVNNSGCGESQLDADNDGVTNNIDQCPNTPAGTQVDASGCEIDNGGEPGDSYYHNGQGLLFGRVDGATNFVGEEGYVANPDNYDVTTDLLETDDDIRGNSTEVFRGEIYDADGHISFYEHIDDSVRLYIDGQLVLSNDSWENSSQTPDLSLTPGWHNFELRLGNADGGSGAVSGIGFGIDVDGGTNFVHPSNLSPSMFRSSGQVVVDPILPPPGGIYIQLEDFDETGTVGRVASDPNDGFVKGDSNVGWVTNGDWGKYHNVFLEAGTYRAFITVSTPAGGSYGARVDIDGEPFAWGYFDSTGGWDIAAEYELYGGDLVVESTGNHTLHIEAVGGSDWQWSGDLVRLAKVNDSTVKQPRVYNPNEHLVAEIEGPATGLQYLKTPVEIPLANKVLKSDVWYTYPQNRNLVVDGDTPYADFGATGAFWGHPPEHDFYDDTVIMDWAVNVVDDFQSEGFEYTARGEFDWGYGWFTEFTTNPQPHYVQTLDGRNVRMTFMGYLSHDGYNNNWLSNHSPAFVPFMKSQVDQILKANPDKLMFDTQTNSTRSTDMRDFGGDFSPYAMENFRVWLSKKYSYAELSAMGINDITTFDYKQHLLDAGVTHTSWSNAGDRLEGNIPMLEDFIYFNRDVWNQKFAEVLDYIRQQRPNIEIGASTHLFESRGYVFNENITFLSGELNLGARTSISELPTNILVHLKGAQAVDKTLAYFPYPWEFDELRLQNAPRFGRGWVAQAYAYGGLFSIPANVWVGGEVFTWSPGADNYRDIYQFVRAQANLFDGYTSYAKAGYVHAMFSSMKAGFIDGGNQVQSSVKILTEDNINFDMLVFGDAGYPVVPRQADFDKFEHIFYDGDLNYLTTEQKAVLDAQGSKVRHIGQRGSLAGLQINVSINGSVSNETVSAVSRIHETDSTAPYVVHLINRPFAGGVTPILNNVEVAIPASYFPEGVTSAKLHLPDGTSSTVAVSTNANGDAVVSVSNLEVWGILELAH
Assay: HPAEC-PAD product analysis
Assay type: biochemical
Details: pH not stated for this reaction (in water); 35 °C, 24 h; 5 mg/mL stock

OC[C@H]1O[C@@H](O[C@H]2[C@H]3OC[C@@H]2O[C@@H](O[C@H]2[C@@H](O)[C@@H](CO)O[C@@H](O[C@H]4[C@H]5OC[C@@H]4O[C@@H](O[C@H]4[C@@H](O)[C@@H](CO)OC(O)[C@@H]4O)[C@H]5O)[C@@H]2O)[C@H]3O)[C@H](O)[C@@H](O[C@@H]2O[C@H]3CO[C@@H]([C@@H]2O)[C@@H]3O)[C@H]1O (stereo partly shown) [NA6, neoagarohexaose]
HPAEC-PAD product analysis: the products of Cm-AGA-mediated NA6 hydrolysis were relatively complex (Figure 8D)
